Here are results for twelve molecules from patent US12479840B2, “HMG-CoA reductase degradation inducing compound” (Uppthera, priority 2020, dated 2025).

Where only a bound is given, the exact number is not on record here.

In this experiment the target is T1, HMG-CoA reductase (Homo sapiens, UniProt P04035).
T1 construct: endogenous in cells; host or cells: HepG2 (Korea Cell Line Bank)
T1 sequence (P04035 1-888): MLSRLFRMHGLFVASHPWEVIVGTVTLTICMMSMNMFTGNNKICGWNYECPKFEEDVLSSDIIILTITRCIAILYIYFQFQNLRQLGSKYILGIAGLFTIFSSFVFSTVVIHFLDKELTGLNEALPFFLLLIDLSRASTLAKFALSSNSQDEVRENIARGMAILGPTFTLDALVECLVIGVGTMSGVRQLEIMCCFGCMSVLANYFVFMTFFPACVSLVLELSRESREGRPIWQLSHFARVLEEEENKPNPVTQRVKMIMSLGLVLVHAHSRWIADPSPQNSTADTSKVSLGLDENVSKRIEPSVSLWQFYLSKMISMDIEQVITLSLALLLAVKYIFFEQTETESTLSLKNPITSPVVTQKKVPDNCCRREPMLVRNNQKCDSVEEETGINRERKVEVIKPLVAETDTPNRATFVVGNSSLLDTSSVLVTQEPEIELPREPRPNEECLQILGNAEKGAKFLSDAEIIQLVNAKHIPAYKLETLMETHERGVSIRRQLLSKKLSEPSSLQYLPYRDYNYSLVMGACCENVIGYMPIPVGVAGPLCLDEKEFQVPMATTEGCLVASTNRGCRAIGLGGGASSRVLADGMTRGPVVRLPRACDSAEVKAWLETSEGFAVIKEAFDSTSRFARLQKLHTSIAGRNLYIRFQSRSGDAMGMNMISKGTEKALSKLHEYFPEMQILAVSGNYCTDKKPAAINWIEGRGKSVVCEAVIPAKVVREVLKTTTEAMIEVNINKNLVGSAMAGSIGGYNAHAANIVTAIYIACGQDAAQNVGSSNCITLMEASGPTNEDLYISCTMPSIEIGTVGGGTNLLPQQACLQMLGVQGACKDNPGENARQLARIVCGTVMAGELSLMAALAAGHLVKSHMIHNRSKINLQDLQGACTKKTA
Description: HMG-CoA reductase (HMGCR) degradation in HepG2 cells by western blotting. It is filed as cell-based. As to conditions: treated for 18 hours, ratio of HMG-CoA reductase to GAPDH, read-out: DC50. In outline: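 Western blot read-out: HMGCR protein probed (1:500, 16 hours at 4° C) alongside GAPDH loading control on 15 μg BCA-normalised RIPA lysates. Lysates came from HepG2 cells (P105–P110) exposed for 18 hours to a 10-point, three-fold series starting at 3 μM.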
Usually DC50 stands for the concentration giving 50% degradation. Consider `C[C@H]1C=C2C=C[C@H](C)[C@H](CC[C@@H]3C[C@@H](O[Si](C)(C)C(C)(C)C)CC(=O)O3)[C@H]2[C@@H](OC(=O)NCCOCCOCC#Cc2cccc3c2C(=O)N(C2CCC(=O)NC2=O)C3=O)C1` (stereo partly drawn) [Compound 114, (1S,3R,7S,8S,8aR)-8-(2-((2R,4R)-4-((tert-butyldimethylsilyl)oxy)-6-oxotetrahydro-2H-pyran-2-yl)ethyl)-3,7-dimethyl-1,2,3,7,8,8a-hexahydronaphthalen-1-yl (2-(2-((3-(2-(2,6-dioxopiperidin-3-yl)-1,3-dioxoisoindolin-4-yl)prop-2-yn-1-yl)oxy)ethoxy)ethyl)carbamate], for which the DC50 is less than 0.05 µM.
As for `C[C@H]1C=C2C=C[C@H](C)[C@H](CC[C@@H]3C[C@@H](O)CC(=O)O3)[C@H]2[C@@H](OC(=O)NCCOCCOCC#Cc2cccc3c2C(=O)N(C2CCC(=O)NC2=O)C3=O)C1` (stereo partly drawn) [Compound 115, (1S,3R,7S,8S,8aR)-8-(2-((2R,4R)-4-hydroxy-6-oxotetrahydro-2H-pyran-2-yl)ethyl)-3,7-dimethyl-1,2,3,7,8,8a-hexahydronaphthalen-1-yl (2-(2-((3-(2-(2,6-dioxopiperidin-3-yl)-1,3-dioxoisoindolin-4-yl)prop-2-yn-1-yl)oxy)ethoxy)ethyl)carbamate], the figure is less than 0.05 µM; as for `C[C@H]1C=C2C=C[C@H](C)[C@H](CC[C@@H]3C[C@@H](O[Si](C)(C)C(C)(C)C)CC(=O)O3)[C@H]2[C@@H](OC(=O)NCCCOCCCCNc2cccc3c2C(=O)N(C2CCC(=O)NC2=O)C3=O)C1` (stereo partly drawn) [Compound 120, (1S,3R,7S,8S,8aR)-8-(2-((2R,4R)-4-((tert-butyldimethylsilyl)oxy)-6-oxotetrahydro-2H-pyran-2-yl)ethyl)-3,7-dimethyl-1,2,3,7,8,8a-hexahydronaphthalen-1-yl (3-(4-((2-(2,6-dioxopiperidin-3-yl)-1,3-dioxoisoindolin-4-yl)amino)butoxy)propyl)carbamate], 0.05 to 0.5 µM.
Turning to `C[C@H]1C=C2C=C[C@H](C)[C@H](CC[C@@H]3C[C@@H](O)CC(=O)O3)[C@H]2[C@@H](OC(=O)NCCCOCCCCNc2cccc3c2C(=O)N(C2CCC(=O)NC2=O)C3=O)C1` (stereo partly drawn) [Compound 121, (1S,3R,7S,8S,8aR)-8-(2-((2R,4R)-4-hydroxy-6-oxotetrahydro-2H-pyran-2-yl)ethyl)-3,7-dimethyl-1,2,3,7,8,8a-hexahydronaphthalen-1-yl (3-(4-((2-(2,6-dioxopiperidin-3-yl)-1,3-dioxoisoindolin-4-yl)amino)butoxy)propyl)carbamate], the DC50 was less than 0.05 µM.
Consider `C[C@H]1C=C2C=C[C@H](C)[C@H](CC[C@@H]3C[C@@H](O[Si](C)(C)C(C)(C)C)CC(=O)O3)[C@H]2[C@@H](OC(=O)NCCCCCN2CCC(Nc3cccc4c3C(=O)N(C3CCC(=O)NC3=O)C4=O)CC2)C1` (stereo partly drawn) [Compound 124, (1S,3R,7S,8S,8aR)-8-(2-((2R,4R)-4-((tert-butyldimethylsilyl)oxy)-6-oxotetrahydro-2H-pyran-2-yl)ethyl)-3,7-dimethyl-1,2,3,7,8,8a-hexahydronaphthalen-1-yl (5-(4-((2-(2,6-dioxopiperidin-3-yl)-1,3-dioxoisoindolin-4-yl)amino)piperidin-1-yl)pentyl)carbamate], for which the DC50 was less than 0.05 µM.
In the case of `C[C@H]1C=C2C=C[C@H](C)[C@H](CC[C@@H]3C[C@@H](O[Si](C)(C)C(C)(C)C)CC(=O)O3)[C@H]2[C@@H](OC(=O)NCCCCCCN2CCC(Nc3cccc4c3C(=O)N(C3CCC(=O)NC3=O)C4=O)CC2)C1` (stereo partly drawn) [Compound 125, (1S,3R,7S,8S,8aR)-8-(2-((2R,4R)-4-((tert-butyldimethylsilyl)oxy)-6-oxotetrahydro-2H-pyran-2-yl)ethyl)-3,7-dimethyl-1,2,3,7,8,8a-hexahydronaphthalen-1-yl (6-(4-((2-(2,6-dioxopiperidin-3-yl)-1,3-dioxoisoindolin-4-yl)amino)piperidin-1-yl)hexyl)carbamate] it was 0.05 to 0.5 µM.
As for `C[C@H]1C=C2C=C[C@H](C)[C@H](CC[C@@H]3C[C@@H](O)CC(=O)O3)[C@H]2[C@@H](OC(=O)NCCCCCN2CCC(Nc3cccc4c3C(=O)N(C3CCC(=O)NC3=O)C4=O)CC2)C1` (stereo partly drawn) [Compound 126, (1S,3R,7S,8S,8aR)-8-(2-((2R,4R)-4-hydroxy-6-oxotetrahydro-2H-pyran-2-yl)ethyl)-3,7-dimethyl-1,2,3,7,8,8a-hexahydronaphthalen-1-yl (5-(4-((2-(2,6-dioxopiperidin-3-yl)-1,3-dioxoisoindolin-4-yl)amino)piperidin-1-yl)pentyl)carbamate], the figure is less than 0.05 µM; as for `C[C@H]1C=C2C=C[C@H](C)[C@H](CC[C@@H]3C[C@@H](O)CC(=O)O3)[C@H]2[C@@H](OC(=O)NCCCCCCN2CCC(Nc3cccc4c3C(=O)N(C3CCC(=O)NC3=O)C4=O)CC2)C1` (stereo partly drawn) [Compound 127, (1S,3R,7S,8S,8aR)-8-(2-((2R,4R)-4-hydroxy-6-oxotetrahydro-2H-pyran-2-yl)ethyl)-3,7-dimethyl-1,2,3,7,8,8a-hexahydronaphthalen-1-yl (6-(4-((2-(2,6-dioxo piperidin-3-yl)-1,3-dioxoisoindolin-4-yl)amino)piperidin-1-yl)hexyl)carbamate], 0.05 to 0.5 µM; as for `C[C@H]1C=C2C=C[C@H](C)[C@H](CC[C@@H]3C[C@@H](O[Si](C)(C)C(C)(C)C)CC(=O)O3)[C@H]2[C@@H](OC(=O)NCCOCCNC(=O)COc2cccc3c2C(=O)N(C2CCC(=O)NC2=O)C3=O)C1` (stereo partly drawn) [Compound 128, (1S,3R,7S,8S,8aR)-8-(2-((2R,4R)-4-((tert-butyldimethylsilyl)oxy)-6-oxotetrahydro-2H-pyran-2-yl)ethyl)-3,7-dimethyl-1,2,3,7,8,8a-hexahydronaphthalen-1-yl (2-(2-(2-((2-(2,6-dioxopiperidin-3-yl)-1,3-dioxoisoindolin-4-yl)oxy)acetamido)ethoxy)ethyl)carbamate], less than 0.05 µM.
Regarding `C[C@H]1C=C2C=C[C@H](C)[C@H](CC[C@@H]3C[C@@H](O)CC(=O)O3)[C@H]2[C@@H](OC(=O)NCCOCCNC(=O)COc2cccc3c2C(=O)N(C2CCC(=O)NC2=O)C3=O)C1` (stereo partly drawn) [Compound 129, (1S,3R,7S,8S,8aR)-8-(2-((2R,4R)-4-hydroxy-6-oxotetrahydro-2H-pyran-2-yl)ethyl)-3,7-dimethyl-1,2,3,7,8,8a-hexahydronaphthalen-1-yl (2-(2-(2-((2-(2,6-dioxopiperidin-3-yl)-1,3-dioxoisoindolin-4-yl)oxy)acetamido)ethoxy)ethyl)carbamate], the DC50 is less than 0.05 µM.
As for `C[C@H]1C=C2C=C[C@H](C)[C@H](CC[C@@H]3C[C@@H](O[Si](C)(C)C(C)(C)C)CC(=O)O3)[C@H]2[C@@H](OC(=O)NCCCOC2CCN(C(=O)COc3cccc4c3C(=O)N(C3CCC(=O)NC3=O)C4=O)CC2)C1` (stereo partly drawn) [Compound 134, (1S,3R,7S,8S,8aR)-8-(2-((2R,4R)-4-((tert-butyldimethylsilyl)oxy)-6-oxotetrahydro-2H-pyran-2-yl)ethyl)-3,7-dimethyl-1,2,3,7,8,8a-hexahydronaphthalen-1-yl (3-((1-(2-((2-(2,6-dioxopiperidin-3-yl)-1,3-dioxoisoindolin-4-yl)oxy)acetyl)piperidin-4-yl)oxy)propyl)carbamate], the DC50 fell in the range of 0.05 to 0.5 µM.
As for `C[C@H]1C=C2C=C[C@H](C)[C@H](CC[C@@H]3C[C@@H](O)CC(=O)O3)[C@H]2[C@@H](OC(=O)NCCCOC2CCN(C(=O)COc3cccc4c3C(=O)N(C3CCC(=O)NC3=O)C4=O)CC2)C1` (stereo partly drawn) [Compound 135, (1S,3R,7S,8S,8aR)-8-(2-((2R,4R)-4-hydroxy-6-oxotetrahydro-2H-pyran-2-yl)ethyl)-3,7-dimethyl-1,2,3,7,8,8a-hexahydronaphthalen-1-yl (3-((1-(2-((2-(2,6-dioxopiperidin-3-yl)-1,3-dioxoisoindolin-4-yl)oxy)acetyl)piperidin-4-yl)oxy)propyl)carbamate], the figure is less than 0.05 µM.
